From US20200108009A1, “BIOAVAILABLE AEROSOLIZED SUPPLEMENT FORMULATIONS AND METHODS THEREOF” (Inhale Health LLC, priority 2017, published 2020)

Columns and labels:
[1] = Serum vitamin B12 levels after inhalation of aerosolized sample (Example 7); assay type: in vivo; details: 75 minutes after initial inhalation
Method: An electronic inhaler device powered by a 4.2V, 320 mAh lithium-ion battery was used to aerosolize a sample containing vitamin B12 in organic vegetable glycerin and 1,3-propanediol and the aerosolized sample was inhaled by test subjects. The sample was heated to between 75 to 260° C. with a 3 ohm heating element in about 2 to about 3 second intervals with about 5 to about 10 second rest periods for a total of […]. The mixture contained 60% glycerin and 40% 1,3-propanediol to which 2 mg/ml vitamin B12 was added. Serum vitamin B12 levels were measured in the test subjects before inhalation of the aerosolized sample and 75 minutes after initial inhalation of the aerosolized sample. Before inhalation, serum B12 levels averaged 403.0 pg/ml.

[2] = healthy individuals, cited from earlier work

cobalamin [vitamin B12]
increase of serum B12 compared to levels before inhalation [1]: 5.4%
serum B12 levels after inhalation (average) ([1]; 2 mg/ml vitamin B12, before inhalation 403.0 pg/ml): 424.7 pg/mL
fraction of oral supplement absorbed ([2]; 500 mcg oral supplement): 2%
amount of oral supplement absorbed ([2]; of a 500 mcg oral supplement): about 10 mcg
